In patent US9783545B2, “Pyrazolopyridazines and methods for treating retinal-degenerative diseases and hearing loss associated with usher syndrome” (Usher III Initiative, Inc., priority 2012, dated 2017):

The compounds below were run against T1, N48K Clarin-1 (Homo sapiens, UniProt P58418, N48K) (assay: Restoration of expression of N48K Clarin-1, 24 hour incubation (high content imaging of HA-tagged N48K Clarin-1)). Settings: HEK293-Clarin-1 N48K-HA D9 cell line, 24 hr incubation with compound.
T1 construct: expressed in transfected cells
T1 sequence (P58418 1-232 N48K): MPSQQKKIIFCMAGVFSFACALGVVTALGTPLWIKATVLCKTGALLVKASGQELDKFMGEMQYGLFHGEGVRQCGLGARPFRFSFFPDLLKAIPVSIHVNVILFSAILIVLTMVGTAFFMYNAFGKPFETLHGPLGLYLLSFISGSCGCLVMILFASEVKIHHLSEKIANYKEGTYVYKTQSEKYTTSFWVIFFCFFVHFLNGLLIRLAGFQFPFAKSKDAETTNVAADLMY
Type: cell-based
Parameters: IC50: scale not given here
Procedure: Assay Method Showing Activity of Compounds of the Invention that Restore Expression of N48K Clarin-1 (24 hour incubation)
Clarin-1 is the protein encoded by the gene mutated in Usher III Syndrome (Adato et al., 2002). The most prevalent mutation in Clarin-1 in North America is N48K, which is reported to cause loss of glycosylation and a trafficking defect (Tian et al., 2009). […] Thus it is believed that restoring the trafficking of N48K Clarin-1 to the cell surface provides an avenue of intervention for Usher III Sydrome.
In a typical experiment, these cells were seeded on collagen-coated 96-well plates at a cell density of 20,000 cells per well in Dulbecco's Modified Eagle Medium (DMEM) contain 10% fetal bovine serum in a humidified incubator at 37° C., 5% CO2. After an overnight incubation, compounds were added for a 24 hr incubation in DMEM medium contain 10% fetal bovine serum in a humidified incubator at 37° C., 5% CO2. As a negative control, DMSO was used at 0.25% final concentrations. Compounds were typically tested in triplicate fashion. After the 24 hr incubation with compounds, the cells were fixed by the addition of 10% buffered formalin to the wells to achieve a final concentration of 4% formalin. After a 20 min fixation at room temperature, wells were washed three times with phosphate-buffered saline (PBS) containing Triton X-100 (0.02 phosphate, 150 mM NaCl, 0.1% Triton X-100).
The HA-tagged N48K Clarin-1 was detected with an antibody against the HA tag (HA.11 Clone 16B12 Monoclonal antibody, Covance #MMS-101P) at a dilution of 1:1000 in PBS containing Triton X-100. After a 90 min incubation, wells were washed three times with PBS containing Triton X-100, and a secondary antibody (Goat anti-mouse IgG-Cy3 (1.5 mg/ml), Jackson IR Europe #115165003) was added to the wells at a dilution of 1:250 in PBS containing Triton X-100 for 45 min. Wells were subsequently washed three times with PBS containing Triton X-100, and a final staining for nuclei was performed by the addition of DAPI (4′,6-diamidino-2-phenylindole) at a dilution of 1:10,000. The imaging of the stained cells was performed on an InCell 1000 High Content Imager (GE Healthcare), reading out the Cy3 channel for N48K Clarin-1 and the DAPI channel for nuclei. The images were analyzed and quantitated using a specific algorithm. This algorithm measured the HA-Clarin-1 staining for each cell based on the additional nuclear segmentation of the DAPI signal (FIG. 1). This algorithm measured the intensity per cell, and thus it is less sensitive for variation in cell number. Per well, approximately 2,000 cells were measured to achieve an average density per cell measurement. FIG. 1 illustrates high content analysis. DAPI-stained nuclei are used to perform segmentation of the image into individual cells. The density observed in the N48K Clarin-1 channel (Cy3) is then calculated per cell averaged over a field.

Row | IC50 | Structure (SMILES)
1 | A, B | OCCn1nc(C2CC2)c2c(Cl)c(-c3ccccc3)nnc21 [Iff, 2-(4-chloro-3-cyclopropyl-5-phenyl-pyrazolo[3,4-c]pyridazin-1-yl)ethanol]

Same assay, conditions: HEK293-Clarin-1 N48K-HA D9 cell line, 24 hr incubation with compound; read-out: IC50 (the source's name)

Row | Structure (SMILES) | EC50
2 | CN1CCN(CCn2nc3nnc(-c4ccccc4)c(Cl)c3c2I)CC1 [Compound 20, 4-Chloro-3-iodo-2-(2-(4-methylpiperazin-1-yl)ethyl)-5-phenyl-2H-pyrazolo[3,4-c]pyridazine] | 5000 to 21000 nM
3 | CN1CCN(CCn2nc(-c3cc4ccccc4o3)c3c(Cl)c(-c4ccccc4)nnc32)CC1 [Ij, 3-(benzofuran-2-yl)-4-chloro-1-(2-(4-methylpiperazin-1-yl)ethyl)-5-phenyl-1H-pyrazolo[3,4-c]pyridazine] | ≤ 2000 nM
4 | Cc1nn(CCO)c2nnc(-c3ccccc3)c(Cl)c12 [Ihh, 2-(4-chloro-3-methyl-5-phenyl-pyrazolo[3,4-c]pyridazin-1-yl)ethanol] | ≤ 2000 nM
5 | Clc1c(-c2ccccc2)nnc2c1c(-c1ccccc1)nn2C1CCOCC1 [IIe, 4-chloro-3,5-diphenyl-1-tetrahydropyran-4-yl-pyrazolo[3,4-c]pyridazine] | ≤ 2000 nM
6 | Clc1c(-c2ccccc2)nnc2[nH]nc(Br)c12 [Ibb, 3-bromo-4-chloro-5-phenyl-1H-pyrazolo[3,4-c]pyridazine] | 2000 to 5000 nM
7 | Cn1nc(C2CC2)c2c(Cl)c(-c3ccccc3)nnc21 [Compound 21, 4-chloro-3-cyclopropyl-1-methyl-5-phenyl-pyrazolo[3,4-c]pyridazine] | 2000 to 5000 nM
8 | Clc1c(-c2ccccc2)nnc2[nH]nc(C3CC3)c12 [Idd, 4-chloro-3-cyclopropyl-5-phenyl-1H-pyrazolo[3,4-c]pyridazine] | ≤ 2000 nM
9 | Clc1c(-c2ccccc2)nnc2c1c(-c1ccccc1)nn2Cc1ccccn1 [IIp, 4-chloro-3,5-diphenyl-1-(2-pyridylmethyl)pyrazolo[3,4-c]pyridazine] | ≤ 2000 nM
10 | Cn1nc(-c2cccnc2)c2c(Cl)c(-c3ccccc3)nnc21 [Compound 26, 4-chloro-1-methyl-5-phenyl-3-(3-pyridyl)pyrazolo[3,4-c]pyridazine] | ≤ 2000 nM
11 | FC(F)(F)CCn1nc(-c2ccccc2)c2c(Cl)c(-c3ccccc3)nnc21 [IId, 4-chloro-3,5-diphenyl-1-(3,3,3-trifluoropropyl)pyrazolo[3,4-c]pyridazine] | ≤ 2000 nM
12 | O=C(Cn1nc(C2=CCCC2)c2c(Cl)c(-c3ccccc3)nnc21)N1CCCC1 [In, 2-(4-chloro-3-(cyclopent-1-en-1-yl)-5-phenyl-1H-pyrazolo[3,4-c]pyridazin-1-yl)-1-(pyrrolidin-1-yl)ethanone] | ≤ 2000 nM
13 | CN1CCN(CCn2nc(/C=C/c3ccccc3)c3c(Cl)c(-c4ccccc4)nnc32)CC1 [Ig, (E)-4-chloro-1-(2-(4-methylpiperazin-1-yl)ethyl)-5-phenyl-3-styryl-1H-pyrazolo[3,4-c]pyridazine] | ≤ 2000 nM
14 | Cc1nn(C)c2nnc(-c3ccccc3)c(Cl)c12 [Compound 22, 4-chloro-1,3-dimethyl-5-phenyl-pyrazolo[3,4-c]pyridazine] | ≤ 2000 nM
15 | Cc1nn(C)c2nnc(-c3ccccc3)c(F)c12 [Compound 24, 4-fluoro-1,3-dimethyl-5-phenyl-pyrazolo[3,4-c]pyridazine] | ≤ 2000 nM
16 | Cn1nc(-c2ccccc2)c2c(Cl)c(-c3cccnc3)nnc21 [IIId, 4-chloro-1-methyl-3-phenyl-5-(3-pyridyl)pyrazolo[3,4-c]pyridazine] | ≤ 2000 nM
17 | O=C(Cn1nc(C2CC2)c2c(Cl)c(-c3ccccc3)nnc21)N1CCCC1 [Iee, 2-(4-chloro-3-cyclopropyl-5-phenyl-pyrazolo[3,4-c]pyridazin-1-yl)-1-pyrrolidin-1-yl-ethanone] | 2000 to 5000 nM
18 | CC(=O)CCn1nc(-c2ccccc2)c2c(Cl)c(-c3ccccc3)nnc21 [IIm, 4-(4-chloro-3,5-diphenyl-pyrazolo[3,4-c]pyridazin-1-yl)butan-2-one] | ≤ 2000 nM
19 | O=C1CCCN1CCn1nc(-c2cccc(F)c2)c2c(Cl)c(-c3ccccc3)nnc21 [IIr, 1-[2-[4-chloro-3-(3-fluorophenyl)-5-phenyl-pyrazolo[3,4-c]pyridazin-1-yl]ethyl]pyrrolidin-2-one] | ≤ 2000 nM
20 | Cc1nn(C)c2nnc(-c3cccc(F)c3)c(Cl)c12 [Compound 25, 4-chloro-5-(3-fluorophenyl)-1,3-dimethyl-pyrazolo[3,4-c]pyridazine] | ≤ 2000 nM
21 | Cn1nc(C2CCCC2)c2c(Cl)c(-c3ccccc3)nnc21 [Compound 27, 4-chloro-3-cyclopentyl-1-methyl-5-phenyl-pyrazolo[3,4-c]pyridazine] | 2000 to 5000 nM
22 | CN(C)CCNC(=O)Cn1nc(-c2cccnc2)c2c(Cl)c(-c3ccccc3)nnc21 [Igg, 2-[4-chloro-5-phenyl-3-(3-pyridyl)pyrazolo[3,4-c]pyridazin-1-yl]-N-(2-dimethylaminoethyl)acetamide] | 2000 to 5000 nM

Results, then the compound that gave them:

Row | EC50 | Structure (SMILES)
23 | ≤ 2000 nM | FC(F)(F)Cn1nc(-c2ccccc2)c2c(Cl)c(-c3ccccc3)nnc21 [IIk, 4-chloro-3,5-diphenyl-1(2,2,2-trifluoroethyl)pyrazolo[3,4-c]pyridazine]
24 | ≤ 2000 nM | Clc1c(-c2ccccc2)nnc2c1c(-c1ccccc1)nn2Cc1ccncc1 [IIo, 4-chloro-3,5-diphenyl-1-(4-pyridylmethyl)pyrazolo[3,4-c]pyridazine]
25 | 2000 to 5000 nM | Cc1nn(CC(=O)N2CCCC2)c2nnc(-c3ccccc3)c(Cl)c12 [Iw, 2-(4-chloro-3-methyl-5-phenyl-pyrazolo[3,4-c]pyridazin-1-yl)-1-pyrrolidin-1-yl-ethanone]
26 | ≤ 2000 nM | CN1CCN(CCn2nc(I)c3c(Cl)c(-c4ccccc4)nnc32)CC1 [Ia, 4-Chloro-3-iodo-1-(2-(4-methylpiperazin-1-yl)ethyl)-5-phenyl-1H-pyrazolo[3,4-c]pyridazine]
27 | 2000 to 5000 nM | O=C(Cn1nc(C(F)(F)F)c2c(Cl)c(-c3ccccc3)nnc21)N1CCCC1 [Iaa, 2-[4-chloro-5-phenyl-3-(trifluoromethyl)pyrazolo[3,4-c]pyridazin-1-yl]-1-pyrrolidin-1-yl-ethanone]
28 | ≤ 2000 nM | CN1CCN(CCn2nc(-c3cc4ccccc4[nH]3)c3c(Cl)c(-c4ccccc4)nnc32)CC1 [Im, 4-chloro-3-(1H-indol-2-yl)-1-(2-(4-methylpiperazin-1-yl)ethyl)-5-phenyl-1H-pyrazolo[3,4-c]pyridazine]
29 | 5000 to 21000 nM | CN1CCN(CCn2ncc3c(Cl)c(-c4ccccc4)nnc32)CC1 [Ib, 4-Chloro-1-(2-(4-methylpiperazin-1-yl)ethyl)-5-phenyl-1H-pyrazolo[3,4-c]pyridazine]
30 | ≤ 2000 nM | Cc1nn(CCN2CCN(C)CC2)c2nnc(-c3ccccc3)c(Cl)c12 [Iv, 4-chloro-3-methyl-1-[2-(4-methylpiperazin-1-yl)ethyl]-5-phenyl-pyrazolo[3,4-c]pyridazine]
31 | 2000 to 5000 nM | CN1CCN(CCn2nc(-c3ccc(C(F)(F)F)nc3)c3c(Cl)c(-c4ccccc4)nnc32)CC1 [Ih, 4-chloro-1-(2-(4-methylpiperazin-1-yl)ethyl)-5-phenyl-3-(6-(trifluoromethyl)pyridin-3-yl)-1H-pyrazolo[3,4-c]pyridazine]
32 | 2000 to 5000 nM | Cc1n[nH]c2nnc(-c3ccccc3)c(Cl)c12 [Iu, 4-chloro-3-methyl-5-phenyl-1H-pyrazolo[3,4-c]pyridazine]
33 | ≤ 2000 nM | CN1CCN(CCn2nc(C3=CCOCC3)c3c(Cl)c(-c4ccccc4)nnc32)CC1 [If, 4-chloro-3-(3,6-dihydro-2H-pyran-4-yl)-1-(2-(4-methylpiperazin-1-yl)ethyl)-5-phenyl-1H-pyrazolo[3,4-c]pyridazine]
34 | ≤ 2000 nM | CN1CCN(CCn2nc(-c3cccc(C(=O)N4CCCC4)c3)c3c(Cl)c(-c4ccccc4)nnc32)CC1 [Id, (3-(4-chloro-1-(2-(4-methylpiperazin-1-yl)ethyl)-5-phenyl-1H-pyrazolo[3,4-c]pyridazin-3-yl)phenyl)(pyrrolidin-1-yl)methanone]
